# Data reported in patent US8222218B2, “Cyclopropanated carbohydrates” (Seton Hall University, priority 2008, dated 2012).
# Where two headings read alike, the source gives them in different places.
# Tests used:
# [1] = Acute toxicity, minimal motor impairment (rotorod), mice; type: in vivo; settings: mice, rotorod
# How it was run: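 Mice placed on a rod rotating at 6 rpm; a compound is scored toxic when the animal falls off three times within 1 min. In rats, minimal motor deficit is scored as ataxia, an abnormal uncoordinated gait.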
# [2] = target: T1, cloned, human D1 receptor (Homo sapiens, UniProt P21728); test: Radioligand competition binding assay, [3H]SCH23390
# T1 construct: expressed in transfected cells
# T1 sequence (P21728 whole entry): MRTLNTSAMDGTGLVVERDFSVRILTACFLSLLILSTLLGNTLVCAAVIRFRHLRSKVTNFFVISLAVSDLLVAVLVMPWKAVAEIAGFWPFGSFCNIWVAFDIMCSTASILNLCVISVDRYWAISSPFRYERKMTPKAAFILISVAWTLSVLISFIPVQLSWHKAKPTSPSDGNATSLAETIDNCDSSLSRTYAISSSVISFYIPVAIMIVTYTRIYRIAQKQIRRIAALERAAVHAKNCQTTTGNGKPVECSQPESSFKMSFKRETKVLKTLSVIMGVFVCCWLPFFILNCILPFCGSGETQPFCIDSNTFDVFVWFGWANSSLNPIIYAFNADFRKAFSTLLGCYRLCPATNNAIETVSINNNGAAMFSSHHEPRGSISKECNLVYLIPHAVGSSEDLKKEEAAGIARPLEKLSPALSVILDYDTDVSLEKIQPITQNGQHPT
# Excerpt: Receptor binding profiles were provided by the National Institute of Mental Health's Psychoactive Drug Screening Program, Contract # N01 MH32004 (NIMH PDSP) The NIMH PDSP is directed by Bryan L. Roth M. D., Ph.D. at the University of North Carolina at Chapel Hill and Project Officer Jamie Driscol at NIMH, Bethesda Md., USA. Protocols for receptor-based assays by the PDSP may be found on the website: http://pdsp.med.unc.edu/pdspw/binding.php and http://pdsp.med.unc.edu/pdspw/function.php (Apr. 30, 2008).
# Radioligand competition binding assays were performed as previously described (Rothman, R. B., Baumann, M. H., Savage, J. E., Rauser, L., McBride, Hufeisen, S. J., Roth B. L. Circulation (2000) 102:2836-2841) for Compounds 7 and 16. Briefly, test compounds were dissolved to 10 mM in 100% DMSO, then diluted to the desired concentrations (spanning seven orders of magnitude) in Dopamine Binding Buffer (50 mM NaCl, 50 mM HEPES, 5 mM MgCl2, 0.5 mM EDTA, pH 7.4). Diluted test and reference compounds were added to wells containing radioligand ([^3H]SCH23390, 0.3 nM final concentration) and buffer, then membrane fractions from cells stably expressing cloned, human D1 or D5 receptors were added and binding was allowed to equilibrate at room temperature for 1.5 hours. At equilibrium, reactions were filtered (using a FilterMate 96-well harvester, PerkinElmer) onto GF-A glass fiber filters (Wallac) and allowed to dry. Meltilex scintillant (Wallac) was melted onto the dry filters, and then allowed to cool. Filters were then sealed in plastic bags and counted on a Wallac TriLux microbeta counter.
# Raw data (dpm) representing total radioligand binding (i.e., specific+non-specific binding) were plotted as a function of the logarithm of the molar concentration of the competitor (i.e., test or reference compound). Non-linear regression of the normalized (i.e., percent radioligand binding compared to that observed in the absence of test or reference compound) raw data is performed in Prism 4.0 (GraphPad Software) using the built-in three parameter logistic model describing ligand competition binding to radioligand-labeled sites: y=bottom+[(top−bottom)/(1+10^x−logIC50)] where bottom equals the residual radioligand binding measured in the presence of 10 μM reference compound (i.e., non-specific binding) and top equals the total radioligand binding observed in the absence of competitor. The log IC50 (i.e., the log of the ligand concentration that reduces radioligand binding by 50%) is thus estimated from the data and used to obtain the Ki by applying the Cheng-Prusoff approximation: Ki=IC50/(1+[ligand]/KD) where [ligand] equals the assay radioligand concentration and KD equals the affinity constant of the radioligand for the target receptor.
# [3] = Acute toxicity, minimal motor impairment (ataxia), rats; type: in vivo; settings: rat, 30 mg/kg
# Description: Toxicity was measured using the minimal motor impairment test described below.
# Animals are monitored for overt signs of impaired neurological or muscular function to assess a compound's toxicity. In mice, the rotorod procedure is used to disclose minimal muscular or neurological impairment. When a mouse is placed on a rotating rod (6 rpm), the animal can maintain its equilibrium for long periods of time. The animal is considered toxic if it falls off the rotating rod three times during a 1 minute period. In rats, minimal motor deficit is indicated by ataxia, which is manifested by an abnormal, uncoordinated gait. Rats used for toxicity evaluation are examined before the test drug is given as individual animals may have peculiarities in gait, equilibrium, and pacing response which must be distinguished from potential effects of the test substance.
# Male and female albino CF1 mice (18-25 g, Charles River, Portage, Mich.) and male albino Sprague-Dawley rats (275-300 g, kindling test; 100-150 g all other tests; Charles River, Raleigh, N.C.) were used as experimental animals.
# [4] = test system: metrazole-induced clonic seizures; test: Subcutaneous Metrazole Seizure Threshold Test (scMET), mice; type: in vivo; settings: Mus musculus, sc, mice
# How it was run: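 CF1 mice dosed with test compound at 30, 100 and 300 mg/kg; Sprague-Dawley rats at 50 mg/kg p.o. At compound TPE, metrazole at CD97 (85 mg/kg in mice) injected s.c. in the neck. Animals observed 30 min; endpoint is a 3-5 s clonic spasm episode.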
structure (smiles),measurement,setting,value
"CCOC(=O)C1[C@@H]2[C@@H](O)[C@@H]3O[C@H](c4ccc(OC)cc4)OC[C@H]3O[C@H]12 (stereo partly drawn) [Compound 16, ethyl (2R,4aR,5aS,6aR,7R,7aS)-7-hydroxy-2-(4-methoxyphenyl)hexahydro-4H-cyclopropa[5,6]pyrano[3,2-d][1,3]dioxine-6-carboxylate]",TOX 30 0.5 h (animals toxic/tested),"[1]; 30 mg/kg, 0.5 h",0/4
same,TOX 30 4 h (animals toxic/tested),"[1]; 30 mg/kg, 4 h",0/2
same,TOX 100 0.5 h (animals toxic/tested),"[1]; 100 mg/kg, 0.5 h",2/8
same,TOX 100 4 h (animals toxic/tested),"[1]; 100 mg/kg, 4 h",0/4
same,TOX 300 0.5 h (animals toxic/tested),"[1]; 300 mg/kg, 0.5 h",3/4
same,TOX 300 4 h (animals toxic/tested),"[1]; 300 mg/kg, 4 h",1/2
same,Ki,"[2]; D1 dopamine receptor, [3H]SCH23390 0.3 nM, Cheng-Prusoff",4.74 µM
same,inhibition of the D1 dopamine receptor,[2]; radioligand competition binding,significant inhibition
same,TOX 30 4 h (animals toxic/tested),[3],0/4
same,responders at 30 mg/kg,"[4]; 0.4 h, read-out: scMET 30 0.4 h (animals protected/tested)",0%
same,responders at 30 mg/kg,"[4]; 0.5 h, read-out: scMET 30 0.5 h (animals protected/tested)",0%
same,responders at 100 mg/kg,"[4]; 0.4 h, read-out: scMET 100 0.4 h (animals protected/tested)",0%
same,responders at 100 mg/kg,"[4]; 0.5 h, read-out: scMET 100 0.5 h (animals protected/tested)",0%
same,responders at 300 mg/kg,"[4]; 0.4 h, read-out: scMET 300 0.4 h (animals protected/tested)",0%
same,responders at 300 mg/kg,"[4]; 0.5 h, read-out: scMET 300 0.5 h (animals protected/tested)",0%
